Assay results taken from PMC11272611, “Phase Ib and pharmacokinetics study of alpelisib, a PIK3CA inhibitor, and capecitabine in patients with advanced solid tumors” (Frontiers in Oncology, 2024).
Where two headings read alike, the source gives them in different places.

Tests used:
[1] = test system: advanced solid malignancies with PIK3CA alterations; set-up: method as in PMID 29401002; conditions: single-agent alpelisib, once daily; first-in-human phase I; cited from earlier work
[2] = Pharmacokinetics of alpelisib and capecitabine in plasma (LC-MS/MS, non-compartmental); format: in vivo, human; conditions: for half-life / AUC(0-t) / Cmax: mean (range); for AUC(0-t): read-out: AUC0-6h; for AUC: range across dose escalation (dose levels 0 to 2), read-out: area under the concentration-time-curve (AUC)
Experimental: The pharmacokinetic (PK) analysis was conducted in all patients who received at least one dose of alpelisib and capecitabine combination therapy. Blood samples were collected at specified time points, including pre-dose, 1, 2, 4, and 6 hours post-dose, on day 1 of cycle 1. Measurements of alpelisib and capecitabine were carried out with a validated LC-MS/MS assay. PK parameters, including maximum plasma concentration (Cmax), time to reach maximum plasma concentration (tmax), area under the plasma concentration-time curve (AUC), and elimination half-life (t1/2), were calculated using non-compartmental methods. […] The data were presented as the mean (range) and standard deviation (SD).

[3] = set-up: method as in PMID 21332655; conditions: monotherapy, salvage regimens in Korea, retrospective data; cited from earlier work
[4] = human, plasma, oral, Dose level 0 (n=3): alpelisib 200mg+capecitabine 1000mg/m^2, day 1 of cycle 1
[5] = human, plasma, oral, Dose level 0 (n=3): alpelisib 200mg+capecitabine 1000mg/m^2, plasma, day 1 of cycle 1
[6] = human, plasma, oral, Dose level 1 (n=6): alpelisib 300mg+capecitabine 1000mg/m^2, day 1 of cycle 1
[7] = human, plasma, oral, Dose level 1 (n=6): alpelisib 300mg+capecitabine 1000mg/m^2, plasma, day 1 of cycle 1
[8] = human, plasma, oral, across dose levels 0, 1 and 2, read-out: time to reach peak concentration (tmax)

Row | Structure (SMILES) | MTD [1] | Tmax ([2]; Dose level 0 (n=3): alpelisib 200mg+capecitabine 1000mg/m^2, day 1 of cycle 1, ± SD) | Tmax ([2]; Dose level 1 (n=6): alpelisib 300mg+capecitabine 1000mg/m^2, day 1 of cycle 1, ± SD) | Alpelisib exposure (Cmax and AUC0-12) with concomitant capecitabine ([2]; co-administration in patients) | half-life [2, 4] | AUC(0-t) [2, 4] | Cmax [2, 5] | half-life [2, 6] | AUC(0-t) [2, 6] | Cmax [2, 7] | Tmax [2, 8] | AUC ([2]; human, plasma, oral) | Tmax ([2]; human, plasma, oral, Dose level 1 (n=6): alpelisib 300mg+capecitabine 1000mg/m^2, day 1 of cycle 1, ± SD, read-out: tmax) | disease control rate [3]
1 | Cc1nc(NC(=O)N2CCC[C@H]2C(N)=O)sc1-c1ccnc(C(C)(C)C(F)(F)F)c1 [alpelisib] | 400 mg | 2 ± 0.6 h | 4 ± 1.8 h | unaffected | 6.5 h | 4930 ng·h/mL | 1170 ng/mL | 9.29 h | 5070 ng·h/mL | 1240 ng/mL | 2 to 4 h | 4930 to 8190 ng·h/mL |  | 
2 | CCCCCOC(=O)Nc1nc(=O)n([C@@H]2O[C@H](C)[C@@H](O)[C@H]2O)cc1F [capecitabine] |  |  |  |  | 0.89 h | 2670 ng·h/mL | 2500 ng/mL | 0.63 h | 6000 ng·h/mL | 4160 ng/mL | 1 to 2 h | 2670 to 8710 ng·h/mL | 2 h | 60%
